Experimental data from paper PMC6417734 (PLoS ONE, 2019).
“And” between values parts separate entries of the source, which are not always exact repeats. Equal values may be shown once. Read-outs that look alike come from different tables or passages of the source.

Columns and labels:
[1] = Oral pharmacokinetic study in rats (plasma, UPHILIC-MS/MS, non-compartmental analysis); format: in vivo, wistar albino rats; details: for Kel: in h-1 (unit assumed); for AUClast / AUCtot: in ng·h/mL; for thalf: in h (unit assumed)
Protocol: Six healthy rats weighing between 180–220 g were received and maintained under standard laboratory conditions before the experiments. […] Blood samples (approx.0.5 ml) were collected at 0, 0.33, 0.66, 1, 2, 3, 5, 8, 12 and 24 h in lithium heparinized tubes after dosing. Plasma was separated by centrifugation for 8 min at 4000 rpm and stored at −80 °C till further analysis.
The non-compartmental model was used to calculate the pharmacokinetic parameters using WinNonlin software (Pharsight Co., Mountain View, CA, USA). The maximum plasma concentration (Cmax), time to achieve this (Tmax), area under curve zero to last and infinity (AUC0-24; AUC0-∞), half-life (T½), elimination rate constant (Kel) and mean residence time were measured. Statistical parameters like mean, standard deviation and % RSD were calculated by using MS-Excel 2013 (Microsoft).

[2] = Stability in spiked rat plasma under different storage conditions; format: physicochemical; details: for stability in spiked rat plasma, short term and long term storage: LQC and HQC, room temperature and -80 °C for 30 days, acceptance within ±15%; for stability of processed plasma samples in autosampler and after freeze-thaw cycles: autosampler for 24 h, three freeze-thaw cycles; for Processed samples (24 h) Accuracy (%): processed rat plasma samples, autosampler at 10 °C; for long term (1 month) Accuracy (%) / Short term (8 h) Accuracy (%) / Freeze/Thaw (3 cycle) Accuracy (%): spiked rat plasma; for long term (1 month) Accuracy (%): -80 °C for 30 days; for Short term (8 h) Accuracy (%): room temperature; for Freeze/Thaw (3 cycle) Accuracy (%): three cycle from -80 °C to room temperature
Protocol: The short-term (at room temperature for 8 h); post preparation (in autosampler at 10 °C for 24 h), freeze-thaw (three cycle from ─80 °C to room temperature) and long-term (─80 °C for 30 days) stabilities were determined. All stabilities results were measured against freshly spiked CCs and acceptance were limited to be within ±15%.

SUA levels = details: ALP dose of 300 mg/day; ref [10]–[12]; cited from earlier work
[3] = Mean of six rats (supplement), oral ALP 20 mg/kg and LES 15 mg/kg
[4] = Wistar albino, rat, plasma, po, 20 mg/kg, Mean line of six rats (supplement), oral ALP 20 mg/kg and LES 15 mg/kg, read-out: Tmax
[5] = Wistar albino, rat, plasma, po, 20 mg/kg, Mean of six rats (supplement), oral ALP 20 mg/kg and LES 15 mg/kg
[6] = Wistar albino, rat, plasma, po, 20 mg/kg, Mean of six rats (supplement), oral ALP 20 mg/kg and LES 15 mg/kg, read-out: AUClast
[7] = Wistar albino, rat, plasma, po, 20 mg/kg, Mean of six rats (supplement), oral ALP 20 mg/kg and LES 15 mg/kg, read-out: Cmax
[8] = Wistar albino, rat, plasma, po, 20 mg/kg, Mean of six rats (supplement), oral ALP 20 mg/kg and LES 15 mg/kg, read-out: MRT
[9] = Wistar albino, rat, plasma, po, 20 mg/kg, individual animal (rats R1-R6), oral ALP 20 mg/kg and LES 15 mg/kg
[10] = Wistar albino, rat, plasma, po, 20 mg/kg, individual animal (rats R1-R6), oral ALP 20 mg/kg and LES 15 mg/kg, read-out: AUClast
[11] = Wistar albino, rat, plasma, po, 20 mg/kg, individual animal (rats R1-R6), oral ALP 20 mg/kg and LES 15 mg/kg, read-out: Cmax
[12] = Wistar albino, rat, plasma, po, 20 mg/kg, individual animal (rats R1-R6), oral ALP 20 mg/kg and LES 15 mg/kg, read-out: MRT
[13] = Wistar albino, rat, plasma, po, 20 mg/kg, rats, oral ALP 20 mg/kg, read-out: Tmax
[14] = Wistar albino, rat, plasma, po, rat plasma, oral co-administration of ALP 20 mg/kg and LES 15 mg/kg, mean ± SD, six rats, read-out: Cmax
[15] = Wistar albino, rat, plasma, po, rat plasma, oral co-administration of ALP 20 mg/kg and LES 15 mg/kg, mean ± SD, read-out: AUC0-24
[16] = Wistar albino, rat, plasma, po, rat plasma, oral co-administration of ALP 20 mg/kg and LES 15 mg/kg, mean ± SD, read-out: MRT
[17] = Wistar albino, rat, plasma, po, rat plasma, oral co-administration of ALP 20 mg/kg and LES 15 mg/kg, six rats, read-out: Tmax
[18] = individual animal (rats R1-R6), oral ALP 20 mg/kg and LES 15 mg/kg, in h
[19] = individual animal (rats R1-R6), oral ALP 20 mg/kg and LES 15 mg/kg
[20] = individual animal (rats R1-R6), oral ALP 20 mg/kg and LES 15 mg/kg, in ng/mL
[21] = HQC nominal value (ALP 7000, OXP 10000, LES 8000 ng/mL)
[22] = LQC nominal value (ALP 70, OXP 100, LES 80 ng/mL)

Structure (SMILES) | Kel [1, 3] | Tmax [1, 4] [h] | Cmax [1, 14] [µg/mL] | AUC(0-t) [1, 15] [µg·h/mL] | MRT [1, 16] [h] | Tmax [1, 17] [h] | MRT [1, 18] | Cmax [1, 20] | AUClast [1, 19] | AUCtot [1, 19] | stability in spiked rat plasma, short term and long term storage [2] | stability of processed plasma samples in autosampler and after freeze-thaw cycles [2] | Processed samples (24 h) Accuracy (%) [2, 21] [%] | Processed samples (24 h) Accuracy (%) [2, 22] [%] | long term (1 month) Accuracy (%) [2, 21] [%] | Short term (8 h) Accuracy (%) [2, 21] [%] | Freeze/Thaw (3 cycle) Accuracy (%) [2, 21] [%] | long term (1 month) Accuracy (%) [2, 22] [%] | Short term (8 h) Accuracy (%) [2, 22] [%] | Freeze/Thaw (3 cycle) Accuracy (%) [2, 22] [%] | also measured
Oc1ncnc2[nH]ncc12 [ALP, Allopurinol] | 0.5391 | 0.66 | 2.03 ± 0.509 | 3.51 ± 0.571 | 1.98 ± 0.32 | 0.66 | 1.607 and 2.233 and 2.477 and 1.777 and 1.801 | 1667.45 and 2378.66 and 2694.26 and 2321.62 and 1731.2 | 2635.21 and 3641.95 and 4404.97 and 3470.35 and 3598.67 | 2743.88 and 3774.36 and 4653.35 and 3656.48 and 3742.26 | acceptable limits | stable | 99.34 | 96.54 | 88.71 | 90.84 | 100.54 | 87.23 | 93.08 | 108.60 | AUC [1, 5]: 3.66 µg·h/mL; AUC(0-t) [1, 6]: 3.51 µg·h/mL; Cmax [1, 7]: 2.03 µg/mL; MRT [1, 8]: 1.99 h; AUC [1, 9]: 3.39 µg·h/mL; AUC(0-t) [1, 10]: 3.32 µg·h/mL; Cmax [1, 11]: 1.38 µg/mL; MRT [1, 12]: 2.04 h; Tmax ([1]; Wistar albino, rat, plasma, po, 20 mg/kg, individual animal (rats R1-R6), oral ALP 20 mg/kg and LES 15 mg/kg, read-out: Tmax): 0.33 h; Tmax [1, 13]: 0.66 h; Kel [1, 19]: 0.3461; detectability in plasma after administration ([1]; rats, post administration of 20 mg/kg of ALP): undetectable after 8 h; patients who do not achieve sustained reductions in SUA levels (< 6 mg/dL) (SUA levels): > 50%
O=C(O)CSc1nnc(Br)n1-c1ccc(C2CC2)c2ccccc12 [LES, Lesinurad] | 0.09441 | – | 8.27 ± 0.191 | 65.91 ± 0.139 | 12.4 ± 4.51 | 1.5 | 20.1145 and 8.709 and 12.6844 and 8.471 and 9.848 and 14.9899 | 5494.01 and 8320.88 and 6878.96 and 11031.4 and 8808.81 and 9091.69 | 64836.4 and 61847.4 and 85561.6 and 56410.3 and 78552.6 | 68738 and 73776.1 and 90181.7 and 60657.3 and 99665.6 | acceptable limits | stable | 97.01 | 112.54 | 88.59 | 95.12 | 90.13 | 89.81 | 91.26 | 94.8 | thalf [1, 3]: 8.497; Tmax ([1]; Wistar albino, rat, plasma, po, 15 mg/kg, Mean line of six rats (supplement), oral ALP 20 mg/kg and LES 15 mg/kg, read-out: Tmax): 1.5 h; AUC ([1]; Wistar albino, rat, plasma, po, 15 mg/kg, Mean of six rats (supplement), oral ALP 20 mg/kg and LES 15 mg/kg): 77.1 µg·h/mL; AUC(0-t) ([1]; Wistar albino, rat, plasma, po, 15 mg/kg, Mean of six rats (supplement), oral ALP 20 mg/kg and LES 15 mg/kg, read-out: AUClast): 65.9 µg·h/mL; Cmax ([1]; Wistar albino, rat, plasma, po, 15 mg/kg, Mean of six rats (supplement), oral ALP 20 mg/kg and LES 15 mg/kg, read-out: Cmax): 8.27 µg/mL; MRT ([1]; Wistar albino, rat, plasma, po, 15 mg/kg, Mean of six rats (supplement), oral ALP 20 mg/kg and LES 15 mg/kg, read-out: MRT): 12.5 h; AUC ([1]; Wistar albino, rat, plasma, po, 15 mg/kg, individual animal (rats R1-R6), oral ALP 20 mg/kg and LES 15 mg/kg): 69.8 µg·h/mL; AUC(0-t) ([1]; Wistar albino, rat, plasma, po, 15 mg/kg, individual animal (rats R1-R6), oral ALP 20 mg/kg and LES 15 mg/kg, read-out: AUClast): 48.2 µg·h/mL; Tmax [1, 18]: 1 and 3 and 2 and 5 and 0.66; thalf [1, 19]: 13.589 and 5.574 and 9.1146 and 5.126 and 5.707 and 11.8685; Kel [1, 19]: 0.05101 and 0.1244 and 0.07605 and 0.1352 and 0.1214 and 0.0584; ratios of AUC (AUC0-24/ AUC0-∞) ([1]; rats, oral ALP 20 mg/kg and LES 15 mg/kg): ≥ 85%
O=c1[nH]c(=O)c2c[nH]nc2[nH]1 [OXP, oxypurinol] | 0.1191 | 2 | 7.5 ± 0.156 | 44.8 ± 0.373 | 7.58 ± 1.52 | 2 | 6.956 and 5.837 and 6.059 and 8.731 and 9.5786 | 7192.39 and 10535.3 and 7573.56 and 6585.93 and 6831.19 | 49418.6 and 48647.7 and 44044.7 and 42639.7 and 44576.2 | 50759.5 and 50350.9 and 45393.1 and 45993.3 and 50026.1 | acceptable limits | stable | 102.65 | 104.72 | 91.04 | 95.12 | 92.67 | 92.43 | 96.85 | 102.55 | AUC [1, 5]: 47.4 µg·h/mL; AUC(0-t) [1, 6]: 44.8 µg·h/mL; Cmax [1, 7]: 7.5 µg/mL; MRT [1, 8]: 7.58 h; AUC [1, 9]: 41.9 µg·h/mL; AUC(0-t) [1, 10]: 39.5 µg·h/mL; Cmax [1, 11]: 6.25 µg/mL; MRT [1, 12]: 8.33 h; Tmax [1, 13]: 2 h; Tmax [1, 18]: 3 and 0.66 and 1
